The values below come from ChEMBL document CHEMBL5360625, “Design, Synthesis, and Antitumor Activity Evaluation of 2-Arylmethoxy-4-(2,2'-dihalogen-substituted biphenyl-3-ylmethoxy) Benzylamine Derivatives as Potent PD-1/PD-L1 Inhibitors” (J Med Chem, 2023).

The first data set deals with Programmed cell death protein 1/Programmed cell death 1 ligand 1 (Homo sapiens, UniProt Q9NZQ7). The experiment in a line: Inhibition of PD-1/PD-L1 interaction (unknown origin) incubated for 1 hr by HTRF assay. The format is protein-complex assay.
Programmed cell death protein 1/Programmed cell death 1 ligand 1, sequence (Q15116 whole entry): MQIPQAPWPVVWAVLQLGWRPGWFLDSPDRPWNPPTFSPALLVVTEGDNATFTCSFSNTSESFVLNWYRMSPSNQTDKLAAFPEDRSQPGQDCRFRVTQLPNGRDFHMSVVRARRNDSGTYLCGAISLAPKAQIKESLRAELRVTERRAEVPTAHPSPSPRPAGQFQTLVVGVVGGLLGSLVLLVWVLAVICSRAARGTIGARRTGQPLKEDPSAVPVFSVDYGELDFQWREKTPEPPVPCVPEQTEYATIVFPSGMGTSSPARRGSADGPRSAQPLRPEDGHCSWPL
Programmed cell death protein 1/Programmed cell death 1 ligand 1, sequence (Q9NZQ7 whole entry): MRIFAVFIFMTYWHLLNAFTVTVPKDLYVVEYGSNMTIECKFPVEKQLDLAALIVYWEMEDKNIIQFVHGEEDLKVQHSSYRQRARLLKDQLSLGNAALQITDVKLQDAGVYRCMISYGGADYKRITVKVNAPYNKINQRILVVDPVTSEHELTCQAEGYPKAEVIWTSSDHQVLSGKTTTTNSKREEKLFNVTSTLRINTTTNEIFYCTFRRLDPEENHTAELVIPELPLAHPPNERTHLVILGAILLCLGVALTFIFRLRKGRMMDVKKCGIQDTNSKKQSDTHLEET
Settings: not given
Take `COc1c(COc2ccc(OCc3cccc(C#N)c3)c(CNCCO)c2)cccc1-c1ccccc1`: the concentration for half-maximal inhibition (IC50) (in general, the concentration at which inhibition is half-maximal) is > 32 µM.
The same measure, in the same setting: for `COc1c(COc2ccc(CNCCO)c(OCc3cccc(C#N)c3)c2)cccc1-c1ccccc1` the value was 2.4 µM; for `COc1c(COc2ccc(CNCCNC(C)=O)c(OCc3cccc(C)c3)c2)cccc1-c1ccccc1`, 18.3 µM.
Same read-out and setting: for `COc1c(COc2ccc(CNCCNC(C)=O)c(OCc3cccnc3F)c2)cccc1-c1ccccc1` the value was 12.9 µM; for `COc1c(NCc2ccc(OCc3ccc(F)cc3)c(CNCCO)c2)cccc1-c1ccc2cc[nH]c2c1`, > 32 µM; for `COc1c(COc2ccc(CNCCNC(C)=O)c(OCc3cccc(F)c3)c2)cccc1-c1ccccc1`, 11.3 µM.
Consider `COc1c(COc2ccc(CNCCO)c(OCc3cncc(C#N)c3)c2)cccc1-c1ccccc1F`, for which the IC50 worked out at 417 µM.
In turn, `COc1c(COc2ccc(CNCCO)c(OCc3cncc(C#N)c3)c2)cccc1-c1ccccc1` showed a half-inhibitory concentration (IC50) of 0.8 µM.
As for `COc1c(NCc2ccc(OCc3ccc(C(=O)O)cc3)c(CNCCO)c2)cccc1-c1ccccc1`, the IC50 is > 32 µM.
For the compound `COc1c(COc2ccc(CN[C@@H](CO)C(=O)O)c(OCc3cccc(C#N)c3)c2)cccc1-c1ccccc1F`, the IC50 came to 2130 µM.
Same read-out and setting: for `COC(=O)c1ccc(COc2ccc(CNc3cccc(-c4ccccc4)c3OC)cc2CNCCO)cc1` the value was > 32 µM.
In turn, `COc1c(COc2ccc(CN[C@@H](CO)C(=O)O)c(OCc3cccc(C#N)c3)c2)cccc1-c1ccccc1` came in with an IC50 of 2.6 µM.
Same read-out and setting: under `COc1c(COc2ccc(CNCCNC(C)=O)c(OCc3cccc(C#N)c3)c2)cccc1-c1ccccc1Cl` stands 3.6 µM; under `COc1c(COc2ccc(CNCCNC(C)=O)c(OCc3cccc(C#N)c3)c2)cccc1-c1ccccc1F`, 2.4 µM; under `COc1c(COc2ccc(CNCCNC(C)=O)c(OCc3cccnc3)c2)cccc1-c1ccccc1`, 9.4 µM.
Turning to `COc1c(NCc2ccc(OCc3cccc(C#N)c3)c(CNCCNC(C)=O)c2)cccc1-c1ccccc1`, the IC50 is > 32 µM.
The compound `COc1c(COc2ccc(CNCCNC(C)=O)c(OCc3cccc(C#N)c3)c2)cccc1-c1cccc(F)c1` yielded an IC50 of 5.5 µM.
With `COc1c(COc2ccc(CN[C@H](CO)C(=O)O)c(OCc3cccc(C#N)c3)c2)cccc1-c1ccccc1`, the IC50 was 3.2 µM.
Compound `COc1c(COc2ccc(CNCCNC(C)=O)c(OCc3cccc(C#N)c3)c2)cccc1-c1ccc2ccccc2c1` came in with an IC50 of 16 µM.
For the compound `COc1c(COc2ccc(CN3CC(C(=O)O)C3)c(OCc3cncc(C#N)c3)c2)cccc1-c1ccccc1`, the half-maximal inhibitory concentration (IC50) stood at 4.7 µM.
Same read-out and setting: under `COc1c(NCc2ccc(OCc3cccc(C#N)c3)c(CNCCO)c2)cccc1-c1ccccc1` stands 32 µM; under `COc1c(NCc2ccc(OCc3cccc(C#N)c3)c(CNCCO)c2)cccc1-c1ccc2cc[nH]c2c1`, > 32 µM.
Regarding `COc1c(COc2ccc(CN3C[C@@H](O)C[C@@H]3C(=O)O)c(OCc3cccc(C#N)c3)c2)cccc1-c1ccccc1`, the half-inhibitory concentration (IC50) came to 21.8 µM.
The same measure, in the same setting: under `COc1c(NCc2ccc(OCc3ccc(F)cc3)c(CNCCO)c2)cccc1-c1ccc2ccccc2c1` stands > 32 µM; under `COc1c(COc2ccc(CN3CCC[C@@H]3C(=O)O)c(OCc3cccc(C#N)c3)c2)cccc1-c1ccccc1`, 19.4 µM; under `COc1c(COc2cc(OCc3cncc(C#N)c3)c(CNCCNC(C)=O)cc2Cl)cccc1-c1ccccc1F`, 468 µM.
The same measure, in the same setting: for `COc1c(COc2ccc(CNCCNC(C)=O)c(OCc3cccc(C#N)c3)c2)cccc1-c1ccc(F)cc1` the value was 16 µM; for `N#Cc1cccc(COc2cc(OCc3cccc(-c4ccccc4F)c3)ccc2CNCCO)c1`, > 500 µM.
With `COc1c(COc2ccc(CNCCNC(C)=O)c(OCc3cncc(C#N)c3)c2)cccc1-c1ccccc1`, the IC50 was found to be 1.6 µM.
As for `COc1c(COc2ccc(CN[C@@H](CO)C(=O)O)c(OCc3cncc(C#N)c3)c2)cccc1-c1ccccc1F`, inhibition was half-maximal at 616 µM (IC50).
The same measure, in the same setting: for `COc1c(COc2ccc(CNCCNC(C)=O)c(OCc3cccc(C#N)c3)c2)cccc1-c1ccc2c(c1)OCCO2` the value was 2.9 µM.
Take `COc1cc(COc2cc(OCc3cccc(-c4ccccc4)c3OC)ccc2CNCCNC(C)=O)ccn1`: the concentration for half-maximal inhibition (IC50) was 13.7 µM.
As for `COc1c(COc2ccc(CNCCNC(C)=O)c(OCc3ccc(F)cc3)c2)cccc1-c1ccccc1`, the concentration for half-maximal inhibition (IC50) was > 32 µM.
Regarding `COc1c(NCc2ccc(OCc3cccc(C#N)c3)c(CNCCNC(C)=O)c2)cccc1-c1ccc2ccccc2c1`, the IC50 is > 32 µM.
`Cc1c(COc2ccc(CNCCO)c(OCc3cncc(C#N)c3)c2)cccc1-c1ccccc1F` showed an IC50 of 8.5 µM.
The same measure, in the same setting: for `N#Cc1cncc(COc2cc(OCc3cccc(-c4ccccc4F)c3Cl)ccc2CN[C@@H](CO)C(=O)O)c1` the value was 7.3 µM; for `COc1c(COc2ccc(CN3CCC(O)C3)c(OCc3cncc(C#N)c3)c2)cccc1-c1ccccc1` (stereo not drawn), 6.2 µM.
The compound `COc1c(COc2ccc(CNCCNC(C)=O)c(OCc3cncc(C#N)c3)c2)cccc1-c1ccccc1F` came in with a 50% inhibitory concentration (IC50) of 1000 µM.
For the compound `COc1c(COc2ccc(CNCCNC(C)=O)c(OCc3cccc(C#N)c3)c2)cccc1-c1ccccc1`, the IC50 stood at 23.3 µM.
For the compound `COc1c(NCc2ccc(OCc3cccc(C#N)c3)c(CNCCO)c2)cccc1-c1ccc2ccccc2c1`, the IC50 is > 32 µM.
In turn, `COc1c(COc2ccc(CN[C@H](C(=O)O)C(C)O)c(OCc3cccc(C#N)c3)c2)cccc1-c1ccccc1` (single isomer, unassigned) came in with an IC50 of 17.3 µM.
`COc1c(COc2ccc(CNCCNC(C)=O)c(OCc3ccc(C#N)cc3)c2)cccc1-c1ccccc1` registered an IC50 of 22.7 µM.
Take `COc1c(NCc2ccc(OCc3ccc(F)cc3)c(CNCCO)c2)cccc1-c1ccccc1`: the IC50 was > 32 µM.
Compound `N#Cc1cccc(COc2cc(OCc3cccc(-c4ccccc4F)c3F)ccc2CNCCO)c1` gave a half-maximal inhibitory concentration (IC50) of 130 µM.
On to `COc1c(NCc2ccc(OCc3ccc(F)cc3)c(CNCCNC(C)=O)c2)cccc1-c1ccc2cc[nH]c2c1`, for which the IC50 was > 32 µM.
Compound `COc1c(COc2ccc(CN3CCC[C@H]3C(=O)O)c(OCc3cccc(C#N)c3)c2)cccc1-c1ccccc1` gave an IC50 of 18.9 µM.
Same read-out and setting: under `COc1c(COc2ccc(OCc3cccc(C#N)c3)c(CNCCNC(C)=O)c2)cccc1-c1ccccc1` stands > 32 µM.
On to `COc1c(COc2cc(OCc3cncc(C#N)c3)c(CNCCO)cc2Cl)cccc1-c1ccccc1F`, for which the half-maximal inhibitory concentration (IC50) stood at 348 µM.
As for `CC(=O)NCCNCc1ccc(OCc2cccc(-c3ccccc3F)c2C)cc1OCc1cncc(C#N)c1`, the IC50 came out at 24.3 µM.
`N#Cc1cccc(COc2cc(OCc3cccc(-c4ccccc4F)c3Cl)ccc2CN2CC(C(=O)O)C2)c1` displayed an IC50 of 33.6 µM.
`COc1c(COc2ccc(CNCCO)c(OCc3ccc(F)cc3)c2)cccc1-c1ccccc1` had an IC50 of 8.6 µM.
Take `Cc1c(COc2ccc(CNCCO)c(OCc3cccc(C#N)c3)c2)cccc1-c1ccccc1F`: the IC50 was 37.6 µM.
Compound `COc1c(COc2ccc(CNCCO)c(OCc3cccc(C#N)c3)c2)cccc1-c1ccccc1F` yielded an IC50 of 1660 µM.
For `N#Cc1cccc(COc2cc(OCc3cccc(-c4ccccc4F)c3Cl)ccc2CN2CCC(O)C2)c1` (stereo not drawn), the half-maximal inhibitory concentration (IC50) was determined as 19.2 µM.
Still for that read-out and setting: under `N#Cc1cccc(COc2cc(OCc3cccc(-c4ccccc4F)c3Cl)ccc2CNCCO)c1` stands 12.7 µM.
For the compound `N#Cc1cccc(COc2cc(OCc3cccc(-c4ccccc4F)c3F)ccc2CN[C@@H](CO)C(=O)O)c1`, the 50% inhibitory concentration (IC50) was determined as 115 µM.
With `COc1c(COc2ccc(CNCC(=O)O)c(OCc3cccc(C#N)c3)c2)cccc1-c1ccccc1`, the midpoint of inhibition, the IC50, lay at 5.5 µM.

Another data set deals with PBMC. The experiment in a line: Cytotoxicity against human PBMC cells assessed as reduction in cell viability at 1 to 4 uM measured after 48 hrs by CCK-8 assay. The format is toxicity, cell-based. To be noted: dose 1-4 µM. (Tetrazolium assays rely on reduction of a dye to a coloured formazan, in cell work by metabolically active cells.)
For the compound `COc1nc(OCc2cccc(-c3ccccc3)c2C)ccc1CNCCNC(C)=O`, the Activity result is listed as “Non-Toxic”.
As for `Cc1c(COc2ccc(CNCCO)c(OCc3cncc(C#N)c3)c2)cccc1-c1ccccc1F`, the Activity result was “Non-Toxic”.
On to `N#Cc1cncc(COc2cc(OCc3cccc(-c4ccccc4F)c3Cl)ccc2CN[C@@H](CO)C(=O)O)c1`, for which the Activity result is recorded as “Non-Toxic”.
Take `CC(=O)NCCNCc1ccc(OCc2cccc(-c3ccccc3F)c2C)cc1OCc1cncc(C#N)c1`: the Activity entry is listed as “Non-Toxic”.
As to `N#Cc1cccc(COc2cc(OCc3cccc(-c4ccccc4F)c3Cl)ccc2CN2CCC(O)C2)c1` (stereo not drawn), the Activity result is “Non-Toxic”.
Regarding `N#Cc1cccc(COc2cc(OCc3cccc(-c4ccccc4F)c3Cl)ccc2CNCCO)c1`, the Activity entry is recorded as “Non-Toxic”.
